Patent EP4640674A1, “CRYSTAL FORMS OF ETHOXIMOD, PREPARATION METHOD THEREFOR AND USE THEREOF” (Jiankuan (Suzhou) Biotechnology Co., Ltd, priority 2022, dated 2024)
Several values for one entry are separate records, joined by “and”; a condition that tells them apart may be missing. Identical values can stand only once.

How the values were obtained:
Assay type in all cases: physicochemical
[1] = Mechanical stability: grinding, XRPD before and after; conditions: ground with an agate mortar for 5 min; hydrochloride
Description: 50 mg crystal form A of ethoximod and 50 mg crystal form B of ethoximod were weighed and ground clockwise with an agate mortar for 5 min, and the samples before and after the grinding were subjected to an XRPD test.

[2] = Bulk density and tap density test, Hausner ratio and compressibility; conditions: hydrochloride; for Compressibility: (tap density - bulk density)/tap density; for Hausner Ratio: tap density/bulk density
Description: In this experiment, the measurement was performed by using a tap instrument according to a fixed volume method. Specific operations are as follows: the weighed powders were loaded into a 50 mL graduated cylinder, and the graduated cylinder was fixed on a support; the tap instrument was set to vibrate 55±5 times per minute for 6-8 min; a change in a volume of the powders in the measuring cup was measured. A ratio of a mass of the powders to a volume (50 mL) of the materials before the tap is the bulk density of the powders, and a ratio of the mass of the powders to a volume of the materials after the tap is the tap density of the powders. Methods for converting Hausner ratio and compressibility are as follows, and the description of Hausner ratio and flowability is shown in Table 8: Table 6 Physical properties of crystal form A and crystal form B

[3] = Compressibility: tableting evaluation; conditions: punch die with a diameter of 6 mm, hydrochloride; for Experimental Phenomenon: tableting
Description: The crystal form A and the crystal form B of ethoximod were taken for preparation tableting evaluation. In this experiment, samples were subjected to tableting under the same pressure by using a punch die with a diameter of 6 mm, radial crushing forces F, diameters D and thicknesses L of the tablets were measured after the elastic recovery of the tablets, and the tensile strength of the tablets was calculated according to the following formula: tensile strength Ts = 2F/ΠDL.

Compressibility [2] | Bulk Density [2] [g/mL] | Tap Density [2] [g/mL] | Hausner Ratio [2] | Radial Crushing Force F (Hardness/N) ([3]; tablet) | Experimental Phenomenon [3] | Structure (SMILES) | crystal form after grinding (XRPD) [1]
54.0 | 0.2578 | 0.5604 | 2.2 | 5 N and 3 N | slight sticking | CCc1nc(-c2ccc(-c3ccc(CCC(N)(CO)CO)cc3)cc2)co1.Cl [crystal form A, 2-amino-2-{2-(4'-(2-ethyloxazol-4-yl)-[1,1'-biphenyl]-4-yl)ethyl}-1,3-propylene glycol hydrochloride] | remains unchanged
62.0 | 0.0742 | 0.1953 | 2.6 | – | relatively severe sticking | CCc1nc(-c2ccc(-c3ccc(CCC(N)(CO)CO)cc3)cc2)co1.Cl [crystal form B, 2-amino-2-{2-(4'-(2-ethyloxazol-4-yl)-[1,1'-biphenyl]-4-yl)ethyl}-1,3-propylene glycol hydrochloride] | partially crystal transformed into a crystal form C
